Source: ChEMBL document CHEMBL1201862, “PubChem BioAssay data set” (2004)
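How tested: cells in 96-well plates exposed to compound for 48 hours at five concentrations. GI50 marks 50% less growth.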 Calls of active or inactive are those of the source. No stated cut-off is given here; in the data, active = GI50 up to about 1.1 µM and inactive = higher.

What was measured:
Experiment in all cases: NCI-60 cell line screen, 48 h
[1] = test system: UO-31
[2] = test system: SF-539
[3] = test system: UACC-257
[4] = test system: NCI-H522
[5] = test system: OVCAR-8
[6] = test system: HOP-62
[7] = test system: KM-20L2
[8] = test system: SK-MEL-28
[9] = test system: CCRF-CEM
[10] = test system: SK-OV-3
[11] = test system: SN12C
[12] = test system: TK-10
[13] = test system: SNB-75
[14] = test system: HL-60
[15] = test system: IGROV-1
[16] = test system: 786-0
[17] = test system: NCI-H23
[18] = test system: PC-3
[19] = test system: Hs-578T
[20] = test system: DU-145

SMILES	GI50 [1]	GI50 [2]	GI50 [3]	GI50 [4]	GI50 [5]	GI50 [6]	GI50 [7]	GI50 [8]	GI50 [9]	GI50 [10]	GI50 [11]	GI50 [12]	GI50 [13]	GI50 [14]	GI50 [15]	GI50 [16]	GI50 [17]	GI50 [18]	GI50 [19]	GI50 [20]
CC1=CC(=O)NP(=O)(C23CC4CC(CC(C4)C2)C3)N1 (configuration not stated)	> 100 µM (inactive)	> 100 µM (inactive)	> 100 µM (inactive)	> 100 µM (inactive)	> 100 µM (inactive)	> 100 µM (inactive)	> 100 µM (inactive)	> 100 µM (inactive)	> 100 µM (inactive)	> 100 µM (inactive)	> 100 µM (inactive)	> 100 µM (inactive)	> 100 µM (inactive)	> 100 µM (inactive)	> 100 µM (inactive)	> 100 µM (inactive)	> 100 µM (inactive)			
O=C1OC(O)C(Oc2c(Cl)cccc2Cl)=C1Cl (configuration not stated)	14.1 µM (inactive)	17 µM (inactive)	19.5 µM (inactive)	12.5 µM (inactive)	17.5 µM (inactive)	17.7 µM (inactive)	17.8 µM (inactive)	20.2 µM (inactive)	19.9 µM (inactive)	19.5 µM (inactive)	17 µM (inactive)	23.6 µM (inactive)	25.6 µM (inactive)	20 µM (inactive)	17.2 µM (inactive)	17.1 µM (inactive)	17.7 µM (inactive)			
CC1(C)CC(=O)C(CC2C(=O)c3ccccc3C2=O)C(=O)C1	> 100 µM (inactive)	> 100 µM (inactive)	> 100 µM (inactive)	> 100 µM (inactive)	> 100 µM (inactive)	> 100 µM (inactive)	> 100 µM (inactive)	> 100 µM (inactive)	> 100 µM (inactive)	> 100 µM (inactive)	> 100 µM (inactive)	> 100 µM (inactive)	> 100 µM (inactive)	> 100 µM (inactive)	> 100 µM (inactive)	> 100 µM (inactive)	> 100 µM (inactive)			
C=C1C(=O)OC2/C=C(\CO)C3OC3C3OC3(C)CC(OC(=O)/C(=C/C)COC(C)=O)C12 (configuration not stated)	10.6 µM (inactive)	2.91 µM (inactive)	3.84 µM (inactive)	0.313 µM (active)	2.79 µM (inactive)	21.6 µM (inactive)	6.17 µM (inactive)	1.82 µM (inactive)	2.29 µM (inactive)	18.2 µM (inactive)	3.2 µM (inactive)	2.94 µM (inactive)	9.68 µM (inactive)	1.39 µM (inactive)	13.2 µM (inactive)	2.29 µM (inactive)	6.93 µM (inactive)	14 µM (inactive)	3.7 µM (inactive)	17.1 µM (inactive)
Cc1ccc(C(=O)NCc2ccccc2)cc1/N=N/N(C)C	> 31.5 µM (inactive)	> 100 µM (inactive)	21.4 µM (inactive)	27.7 µM (inactive)	> 100 µM (inactive)	> 100 µM (inactive)	65.9 µM (inactive)	> 96.6 µM (inactive)	87.7 µM (inactive)	> 100 µM (inactive)	> 100 µM (inactive)	> 100 µM (inactive)		37.2 µM (inactive)	> 100 µM (inactive)	> 100 µM (inactive)	> 100 µM (inactive)	71.3 µM (inactive)	> 100 µM (inactive)	> 100 µM (inactive)
Cc1c(/C=N/NC(=O)c2ccccc2)c(=O)n(-c2ccccc2)n1C	> 100 µM (inactive)	> 100 µM (inactive)	> 100 µM (inactive)	> 100 µM (inactive)	> 100 µM (inactive)	> 100 µM (inactive)	> 100 µM (inactive)	> 100 µM (inactive)	> 100 µM (inactive)	> 100 µM (inactive)	> 100 µM (inactive)	> 100 µM (inactive)	> 100 µM (inactive)	> 100 µM (inactive)	> 100 µM (inactive)	> 100 µM (inactive)	> 100 µM (inactive)			
